Measured values taken from ChEMBL document CHEMBL3091425, “Benzoxazine Derivatives As CRAC Modulators” (ACS Med Chem Lett, 2013).

Experiments:
[1] = Modulation of calcium release-activated calcium channel in human whole blood T cells assessed as inhibition of thapsigargin-stimulated IL2 production incubated 30 mins prior to thapsigargin-challenge measured after overnight incubation by AlphaLISA IL-2 assay; format: cell-based; settings: T-cell
[2] = Modulation of calcium release-activated calcium channel in mitomycin C-stimulated human PBMC assessed as [3H]thymidine incorporation after 4 days by topcount scintillation counting analysis
[3] = Modulation of calcium release-activated calcium channel in human jurkat cells assessed as inhibition of PHA/PMA/ionomycin-stimulated IL2 production incubated 10 mins prior to PHA/PMA/ionomycin-challenge measured after 18 to 20 hrs; format: cell-based

SMILES: CCn1nc(-c2cccnc2)cc1-c1ccc2c(c1)OCC(c1c(F)cccc1F)N2 (stereo not drawn)
- IC50 [1]: 320 nM
- IC50 [2]: 330 nM
- IC50 [3]: 70 nM

SMILES: Cc1sc(-c2cccnc2)nc1-c1ccc2c(c1)OCC(c1c(F)cccc1F)N2 (stereo not drawn)
- IC50 [1]: 430 nM
- IC50 [2]: 190 nM
- IC50 [3]: 30 nM

SMILES: CCc1sc(-c2cccnc2)nc1-c1ccc2c(c1)OCC(c1c(F)cccc1F)N2 (stereo not drawn)
- IC50 [1]: 520 nM
- IC50 [2]: 100 nM
- IC50 [3]: 30 nM

SMILES: CCc1sc(-c2cnccn2)nc1-c1ccc2c(c1)OCC(c1c(F)cccc1F)N2 (stereo not drawn)
- IC50 [1]: 870 nM
- IC50 [2]: 180 nM
- IC50 [3]: 20 nM

SMILES: CCc1sc(-c2ccncc2)nc1-c1ccc2c(c1)OCC(c1c(F)cccc1F)N2 (stereo not drawn)
- IC50 [1]: 320 nM
- IC50 [2]: 440 nM
- IC50 [3]: 20 nM

SMILES: CCc1sc(-c2cc(C)on2)nc1-c1ccc2c(c1)OCC(c1c(F)cccc1F)N2 (stereo not drawn)
- IC50 [1]: 360 nM
- IC50 [2]: 430 nM
- IC50 [3]: 30 nM
